ChEMBL document CHEMBL5233217, “Modification of 7-piperazinylquinolone antibacterials to promising anticancer lead compounds: Synthesis and in vitro studies” (Eur J Med Chem, 2020)
pIC50: −log10 of the molar value.

Tests used:
HL-60 [1] = assay: Anticancer activity against human HL-60 cells assessed as reduction in cell viability incubated for 24 hrs by MTT assay; type: functional, cell-based; conditions: HL-60, 24 h
HL-60 [2] = assay: Anticancer activity against human HL-60 cells assessed as reduction in cell viability incubated for 48 hrs by MTT assay; type: functional, cell-based; conditions: HL-60, 48 h
HL-60 [3] = assay: Antiproliferative activity against human HL-60 cells assessed as reduction in cell viability incubated for 48 hrs by MTT assay; type: functional, cell-based; conditions: HL-60, 48 h
L1210 [4] = assay: Antiproliferative activity against mouse L1210 cells assessed as reduction in cell viability incubated for 48 hrs by MTT assay; type: functional, cell-based; conditions: L1210, 48 h
L1210 [5] = assay: Antiproliferative activity against mouse L1210 cells assessed as reduction in cell viability; type: functional, cell-based
CAPAN-1 [6] = assay: Antiproliferative activity against human CAPAN-1 cells assessed as reduction in cell viability; type: functional, cell-based
SMMC-7721 [7] = assay: Antiproliferative activity against human SMMC-7721 cells assessed as reduction in cell viability; type: functional, cell-based
Hep 3B2 [8] = assay: Antiproliferative activity against human Hep3B cells assessed as reduction in cell viability; type: functional, cell-based
HL-60 [9] = assay: Antiproliferative activity against human HL-60 cells assessed as reduction in cell viability; type: functional, cell-based
PC-3 [10] = assay: Antitumor activity against human PC-3 cells assessed as reduction in cell viability incubated for 72 hrs by MTT assay; type: functional, cell-based; conditions: PC-3, 72 h
MCF7 [11] = assay: Antitumor activity against human MCF7 cells assessed as reduction in cell viability incubated for 72 hrs by MTT assay; type: functional, cell-based; conditions: MCF7, 72 h
HeLa = assay: Antitumor activity against human HeLa cells assessed as reduction in cell viability incubated for 72 hrs by MTT assay; type: functional, cell-based
HepG2 [12] = assay: Antitumor activity against human HepG2 cells assessed as reduction in cell viability incubated for 72 hrs by MTT assay; type: functional, cell-based; conditions: HepG2, 72 h
A549 [13] = assay: Antitumor activity against human A549 cells assessed as reduction in cell viability incubated for 72 hrs by MTT assay; type: functional, cell-based; conditions: A549, 72 h
HL-60 [14] = assay: Antitumor activity against human HL-60 cells assessed as reduction in cell viability by MTT assay; type: functional, cell-based
L1210 [15] = assay: Antitumor activity against mouse L1210 cells assessed as reduction in cell viability by MTT assay; type: functional, cell-based
Hep 3B2 [16] = assay: Antitumor activity against human Hep3B cells assessed as reduction in cell viability by MTT assay; type: functional, cell-based
SMMC-7721 [17] = assay: Antitumor activity against human SMMC-7721 cells assessed as reduction in cell viability by MTT assay; type: functional, cell-based
CAPAN-1 [18] = assay: Antitumor activity against human CAPAN-1 cells assessed as reduction in cell viability by MTT assay; type: functional, cell-based
Huh-7 = assay: Anticancer activity against human Huh-7 cells assessed as reduction in cell viability incubated for 24 hrs by MTT assay; type: functional, cell-based; conditions: Huh-7, 24 h
[19] = Cytotoxicity against mouse BMSC cells assessed as reduction in cell viability incubated for 48 hrs by MTT assay; type: toxicity, cell-based
SMMC-7721 [20] = assay: Antiproliferative activity against human SMMC-7721 cells assessed as reduction in cell viability incubated for 48 hrs by MTT assay; type: functional, cell-based; conditions: SMMC-7721, 48 h
MCF7 [21] = assay: Antiproliferative activity against human MCF7 cells assessed as reduction in cell viability incubated for 48 hrs by MTT assay; type: functional, cell-based; conditions: MCF7, 48 h
Hep 3B2 [22] = assay: Antiproliferative activity against human Hep3B cells assessed as reduction in cell viability incubated for 48 hrs by MTT assay; type: functional, cell-based
HCT-8 [23] = assay: Antiproliferative activity against human HCT-8 cells assessed as reduction in cell viability incubated for 48 hrs by MTT assay; type: functional, cell-based; conditions: HCT-8, 48 h
CAKI-1 = assay: Anticancer activity against human CAKI-1 cells assessed as cell growth inhibition; type: functional; conditions: pooled result: one value given for 3 cell lines, strains, targets or settings
L1210 [24] = assay: Anticancer activity against mouse L1210 cells assessed as reduction in cell viability by MTT assay; type: functional, cell-based
A2780 = assay: Anticancer activity against human cisplatin resistant A2780 cells assessed as reduction in cell viability by MTT assay; type: functional, cell-based
SW48 = assay: Anticancer activity against human SW48 cells assessed as reduction in cell viability by MTT assay; type: functional, cell-based
UACC-257 = assay: Anticancer activity against human UACC-257 cells assessed as cell growth inhibition by sulforhodamine B assay; type: functional
HOP-92 = assay: Anticancer activity against human HOP-92 cells assessed as cell growth inhibition by sulforhodamine B assay; type: functional
SK-MEL-5 = assay: Anticancer activity against human SK-MEL-5 cells assessed as cell growth inhibition by sulforhodamine B assay; type: functional
LOX IMVI = assay: Anticancer activity against human LOX IMVI cells assessed as cell growth inhibition by sulforhodamine B assay; type: functional
SK-MEL-2 = assay: Anticancer activity against human SK-MEL-2 cells assessed as cell growth inhibition by sulforhodamine B assay; type: functional
PC-3 [25] = assay: Antiproliferative activity against human PC-3 cells assessed as inhibition of cell proliferation by CCK-8 assay; type: functional, cell-based
MGC-803 = assay: Antiproliferative activity against human MGC-803 cells assessed as inhibition of cell proliferation by CCK-8 assay; type: functional, cell-based
NCI-H460 = assay: Antiproliferative activity against human NCI-H460 cells assessed as inhibition of cell proliferation by CCK-8 assay; type: functional, cell-based
HepG2 [26] = assay: Antiproliferative activity against human HepG2 cells assessed as inhibition of cell proliferation by CCK-8 assay; type: functional, cell-based
MCF7 [27] = assay: Antiproliferative activity against human MCF7 cells assessed as inhibition of cell proliferation by CCK-8 assay; type: functional, cell-based
SW-620 = assay: Antiproliferative activity against human SW620 cells assessed as inhibition of cell proliferation by CCK-8 assay; type: functional, cell-based
SMMC-7721 [28] = assay: Antiproliferative activity against human SMMC-7721 cells assessed as reduction in cell viability incubated for 24 hrs by MTT assay; type: functional, cell-based; conditions: SMMC-7721, 24 h
MCF7 [29] = assay: Antiproliferative activity against human MCF7 cells assessed as reduction in cell viability incubated for 24 hrs by MTT assay; type: functional, cell-based; conditions: MCF7, 24 h
HCT-8 [30] = assay: Antiproliferative activity against human HCT-8 cells assessed as reduction in cell viability incubated for 24 hrs by MTT assay; type: functional, cell-based; conditions: HCT-8, 24 h
A549 [31] = assay: Anticancer activity against human A549 cells assessed as reduction in cell viability by MTT assay; type: functional, cell-based
CAPAN-1 [32] = assay: Antiproliferative activity against human CAPAN-1 cells assessed as reduction in cell viability incubated for 24 to 72 hrs by MTT assay; type: functional, cell-based
PANC-1 = assay: Antiproliferative activity against human PANC-1 cells assessed as reduction in cell viability incubated for 24 to 72 hrs by MTT assay; type: functional, cell-based

Compound: COc1ccc2cc3[n+](cc2c1OC(=O)c1cn(C2CC2)c2cc(N4CCNCC4)c(F)cc2c1=O)CCc1cc2c(cc1-3)OCO2
- pIC50 (HL-60 [1]): 4.71
- pIC50 (HL-60 [2]): 4.80

Compound: O=c1c(-c2nn3c(-c4cn(C5CC5)c5cc(N6CCNCC6)c(F)cc5c4=O)nnc3s2)cn(C2CC2)c2cc(N3CCNCC3)c(F)cc12
- pIC50 (HL-60 [3]): 6.27
- pIC50 (L1210 [4]): 5.44

Compound: CCn1cc(-c2nnc(SCc3nnc(-c4ccccc4OC)o3)[nH]2)c(=O)c2cc(F)c(N3CCN(C)CC3)cc21
- pIC50 (L1210 [5]): 5.42
- pIC50 (CAPAN-1 [6]): 5.42
- pIC50 (SMMC-7721 [7]): 5.42
- pIC50 (Hep 3B2 [8]): 5.42
- pIC50 (HL-60 [9]): 5.42

Compound: C[C@H]1COc2c(N3CCN(C)CC3)c(F)cc3c(=O)c(C(=O)NCc4cn(CCCCCCC(=O)NO)nn4)cn1c23
- pIC50 (PC-3 [10]): 6.52
- pIC50 (MCF7 [11]): 6.52
- pIC50 (HeLa): 6.52
- pIC50 (HepG2 [12]): 6.52
- pIC50 (A549 [13]): 6.52

Compound: COc1ccc(-c2csc3nc(-c4cn5c6c(c(N7CCN(C)CC7)c(F)cc6c4=O)OCC5C)nn23)cc1 (stereo not given)
- pIC50 (HL-60 [14]): 4.57
- pIC50 (L1210 [15]): 4.57
- pIC50 (Hep 3B2 [16]): 4.57
- pIC50 (SMMC-7721 [17]): 4.57
- pIC50 (CAPAN-1 [18]): 4.57

Compound: Nc1nnc(-c2cn(C3CC3)c3cc(N4CCNCC4)c(F)cc3c2=O)s1
- pIC50 (Huh-7): 4.59

Compound: COc1cc(/C=N/NC(=O)c2cn3c4c(c(N5CCN(C)CC5)c(F)cc4c2=O)OC[C@@H]3C)cc(OC)c1OC
- IC50 at 48 h [19]: 7.46 µM
- pIC50 (SMMC-7721 [20]): 5.66
- pIC50 (MCF7 [21]): 5.66
- pIC50 (Hep 3B2 [22]): 5.66
- pIC50 (HCT-8 [23]): 5.66

Compound: CCn1cc(-c2nc(SCc3nnc(-c4ccc(F)cc4)o3)n(CN(C)C)n2)c(=O)c2cc(F)c(N3CCN(C)CC3)cc21
- pIC50 (L1210 [5]): 5.82
- pIC50 (CAPAN-1 [6]): 5.82
- pIC50 (SMMC-7721 [7]): 5.82
- pIC50 (Hep 3B2 [8]): 5.82
- pIC50 (HL-60 [9]): 5.82

Compound: C=C1CC(CN2CCN(c3cc4c(cc3F)c(=O)c(C(=O)O)cn4CC)CC2)(c2ccccc2)OC1=O (stereo not given)
- GI50 (CAKI-1): 3.39 µM

Compound: CC1COc2c(N3CCN(C)CC3)c(F)cc3c(=O)c(-c4nnc5n4N=C(c4ccc(O)c(O)c4)CS5)cn1c23 (stereo not given)
- pIC50 (L1210 [24]): 5.74

Compound: CCn1cc(-c2nnc(SCc3nnc(-c4ccc(F)cc4)o3)[nH]2)c(=O)c2cc(F)c(N3CCN(C)CC3)cc21
- pIC50 (L1210 [5]): 5.42
- pIC50 (CAPAN-1 [6]): 5.42
- pIC50 (SMMC-7721 [7]): 5.42
- pIC50 (Hep 3B2 [8]): 5.42
- pIC50 (HL-60 [9]): 5.42

Compound: CC1COc2c(N3CCN(C)CC3)c(F)cc3c(=O)c(-c4n[nH]c5cc(-c6ccc(O)c(O)c6)nn45)cn1c23 (stereo not given)
- pIC50 (L1210 [24]): 5.92

Compound: C[C@H]1COc2c(Nc3ccc(-n4c(=O)[nH][nH]c4=O)cc3)c(F)cc3c(=O)c(C(=O)O)cn1c23
- pIC50 (A2780): ≥ 4.37
- pIC50 (SW48): ≥ 4.37

Compound: COc1ncnc(NS(=O)(=O)c2ccc(/N=C3\C(=O)N(CN4CCN(c5c(F)cc6c(=O)c(C(=O)O)cn(C7CC7)c6c5OC)CC4C)c4ccc(Br)cc43)cc2)c1OC (stereo not given)
- GI50 (UACC-257): < 10 µM
- GI50 (HOP-92): 0.176 µM
- GI50 (SK-MEL-5): < 10 µM
- GI50 (LOX IMVI): < 10 µM
- GI50 (SK-MEL-2): < 10 µM

Compound: C[C@H]1COc2c(N3CCN(C)CC3)c(F)cc3c(=O)c(-c4nnc(NC(=O)CCCCCCC(=O)NO)s4)cn1c23
- pIC50 (PC-3 [25]): 6.22
- pIC50 (MGC-803): 6.22
- pIC50 (NCI-H460): 6.22
- pIC50 (HepG2 [26]): 6.22
- pIC50 (MCF7 [27]): 6.22
- pIC50 (SW-620): 6.22

Compound: O=c1c(-c2nnc3n2N=C(c2ccc(O)c(O)c2)CS3)cn(C2CC2)c2cc(N3CCNCC3)c(F)cc12
- pIC50 (L1210 [24]): 5.85

Compound: C[C@H]1COc2c(N3CCN(C)CC3)c(F)cc3c(=O)c(-c4nn5c(-c6cn(C7CC7)c7cc(N8CCNCC8)c(F)cc7c6=O)nnc5s4)cn1c23
- pIC50 (L1210 [4]): 5.82

Compound: O=C(N/N=C/c1ccc2c(c1)OCO2)c1cn(C2CC2)c2cc(N3CCNCC3)c(F)cc2c1=O
- pIC50 (SMMC-7721 [28]): 5.54
- pIC50 (MCF7 [29]): 5.54
- pIC50 (HCT-8 [30]): 5.54

Compound: C[C@H]1COc2c(Nn3c(=O)[nH][nH]c3=O)c(F)cc3c(=O)c(C(=O)O)cn1c23
- pIC50 (A549 [31]): 4.46

Compound: C=C1CC(CN2CCN(c3cc4c(cc3F)c(=O)c(C(=O)O)cn4CC)CC2)(c2ccc(OC)cc2)OC1=O (stereo not given)
- GI50 (CAKI-1): 6.46 µM

Compound: CN1CCN(c2cc3c(cc2F)c(=O)c(/C=C2\CN(C4CC4)c4cc(N5CCNCC5)c(F)cc4C2=O)cn3C2CC2)CC1
- pIC50 (CAPAN-1 [32]): 5.80
- pIC50 (PANC-1): 5.51
